In patent publication US12259378B2, “Dynamic clamps and methods of use thereof” (priority 2018, dated 2025):
“Also recorded” adds a separate entry of the source. Read-outs that look alike come from different tables or passages of the source.

Experiments:
[1] = tested on: patients with R853Q mutation; conditions: human, in vivo; cited from earlier work
[2] = tested on: patients with R1882Q mutation; conditions: human, in vivo
From the text: (§1) All patients, or their parents or legal guardian in the case of minors or individuals with intellectual disability, gave written informed consent. The study was approved by the Human Research Ethics Committee of Austin Health, Melbourne.
(§2) Clinical data was collated from the literature for previously reported individuals (N=14), with updated clinical information obtained in one patient. Individuals whose clinical data was not previously published (N=5), had their mutations identified through clinical testing. Detailed phone or clinical interviews with these parents were undertaken by paediatric epileptologists (KBH, MRC), home videos were reviewed and medical records from the treating neurologist obtained.

[3] = tested on: patients with R853Q mutation; conditions: human, in vivo
From the text: as §1, §2

[4] = tested on: patients with R1882Q mutation; conditions: human, in vivo; cited from earlier work
human Nav 1.2 channel = human Nav 1.2 channel (Homo sapiens, UniProt Q99250, R1882Q)
Chain of human Nav 1.2 channel (Q99250 whole entry R1882Q, looked up): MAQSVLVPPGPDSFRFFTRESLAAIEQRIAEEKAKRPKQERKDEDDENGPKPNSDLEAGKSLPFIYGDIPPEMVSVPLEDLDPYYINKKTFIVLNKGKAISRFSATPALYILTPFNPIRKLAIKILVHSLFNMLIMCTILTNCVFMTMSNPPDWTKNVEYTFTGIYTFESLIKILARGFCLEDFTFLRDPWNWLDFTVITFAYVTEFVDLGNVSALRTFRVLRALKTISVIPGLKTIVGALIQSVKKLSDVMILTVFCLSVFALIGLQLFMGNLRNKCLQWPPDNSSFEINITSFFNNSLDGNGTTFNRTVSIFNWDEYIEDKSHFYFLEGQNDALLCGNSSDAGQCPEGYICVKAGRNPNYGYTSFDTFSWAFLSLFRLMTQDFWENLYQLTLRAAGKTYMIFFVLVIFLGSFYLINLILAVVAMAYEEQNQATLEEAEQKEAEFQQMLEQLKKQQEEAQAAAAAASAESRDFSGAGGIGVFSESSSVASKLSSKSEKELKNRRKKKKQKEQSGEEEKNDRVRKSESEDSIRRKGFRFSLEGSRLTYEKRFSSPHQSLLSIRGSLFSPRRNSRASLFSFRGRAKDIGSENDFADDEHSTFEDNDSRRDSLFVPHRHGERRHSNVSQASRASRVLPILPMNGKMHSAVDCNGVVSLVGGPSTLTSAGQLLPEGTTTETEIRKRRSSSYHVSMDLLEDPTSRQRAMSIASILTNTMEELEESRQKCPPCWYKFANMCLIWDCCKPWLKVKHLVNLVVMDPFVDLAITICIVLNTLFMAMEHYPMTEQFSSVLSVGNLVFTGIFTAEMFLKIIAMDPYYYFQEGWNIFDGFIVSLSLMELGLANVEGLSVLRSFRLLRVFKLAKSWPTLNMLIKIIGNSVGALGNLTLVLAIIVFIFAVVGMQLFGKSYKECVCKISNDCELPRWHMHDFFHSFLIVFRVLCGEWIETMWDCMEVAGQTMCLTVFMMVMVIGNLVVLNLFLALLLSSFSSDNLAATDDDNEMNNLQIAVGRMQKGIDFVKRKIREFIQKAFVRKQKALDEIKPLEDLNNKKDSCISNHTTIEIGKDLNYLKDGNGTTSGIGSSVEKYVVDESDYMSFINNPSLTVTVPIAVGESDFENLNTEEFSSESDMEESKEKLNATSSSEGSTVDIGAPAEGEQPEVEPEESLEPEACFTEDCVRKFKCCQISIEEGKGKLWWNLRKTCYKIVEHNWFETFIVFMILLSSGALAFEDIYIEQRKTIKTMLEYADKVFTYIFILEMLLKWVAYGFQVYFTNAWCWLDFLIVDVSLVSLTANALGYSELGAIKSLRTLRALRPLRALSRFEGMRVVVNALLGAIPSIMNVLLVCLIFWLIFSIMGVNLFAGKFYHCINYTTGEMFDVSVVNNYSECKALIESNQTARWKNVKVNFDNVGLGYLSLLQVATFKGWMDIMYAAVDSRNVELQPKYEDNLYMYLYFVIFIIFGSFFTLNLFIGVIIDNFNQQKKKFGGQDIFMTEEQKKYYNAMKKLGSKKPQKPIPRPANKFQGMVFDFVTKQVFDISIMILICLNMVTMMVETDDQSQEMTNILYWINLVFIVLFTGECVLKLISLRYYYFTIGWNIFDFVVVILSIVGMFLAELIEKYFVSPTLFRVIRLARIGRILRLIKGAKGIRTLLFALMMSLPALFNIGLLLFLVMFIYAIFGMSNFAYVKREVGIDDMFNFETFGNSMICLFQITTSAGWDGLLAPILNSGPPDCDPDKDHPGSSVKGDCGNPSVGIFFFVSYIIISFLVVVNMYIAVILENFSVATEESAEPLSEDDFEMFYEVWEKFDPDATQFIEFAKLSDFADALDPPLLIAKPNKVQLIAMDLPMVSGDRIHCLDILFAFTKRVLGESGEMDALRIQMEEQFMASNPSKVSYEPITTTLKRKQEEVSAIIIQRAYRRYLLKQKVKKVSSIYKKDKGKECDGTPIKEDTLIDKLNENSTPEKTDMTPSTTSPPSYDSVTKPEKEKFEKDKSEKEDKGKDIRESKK

Compound: CN1C(=O)CC(=O)N(c2ccccc2)c2cc(Cl)ccc21 [CLB, clobazam]
- Other AED response [1]: Benefit

Compound: O=C1NC(=O)C(c2ccccc2)(c2ccccc2)N1 [PHT, phenytoin]
- Adverse effect with phenytoin loads (movement disorder) [2]: ‘continuous thrashing’
- PHT response [2]: Benefit
- Seizure control, summary over patients [2]: some showed marked improvement; also recorded: improved seizure control in two and no definite effect on seizures in three; also recorded: some patients with R1882Q mutations become seizure free; also recorded: not universal
- PHT response [3]: No effect
- PHT response [4]: No effect
- PHT response [1]: No effect

Compound: CCCC(CCC)C(=O)O [VPA, valproic acid]
- Other AED response [2]: Benefit
- Other AED response [1]: Benefit

Compound: CCCCCCC(=O)OCC(COC(=O)CCCCCC)OC(=O)CCCCCC [triheptanoin]
- Other AED response [2]: Benefit
- Improvement of movement disorder [3]: Improvement
- Other AED response [3]: Benefit

Compound: NC1=N[C@H](O)[C@H]2[C@H]3O[C@]4(O)O[C@@H]([C@@H](O)[C@@]2(N1)[C@@H]4O)[C@]3(O)CO [tetrodotoxin]
- Sensitivity of persistent INa to tetrodotoxin (human Nav 1.2 channel): sensitive

Compound: CC1(C)O[C@@H]2[C@@H](CO[C@@]3(COS(N)(=O)=O)OC(C)(C)O[C@@H]23)O1 [TPM, topiramate]
- Other AED response [1]: Benefit

Compound: NC(=O)N1c2ccccc2C=Cc2ccccc21 [CBZ, carbamazepine]
- Seizure control, summary over patients [2]: Seizures were improved
- Other sodium channel blocker response [3]: benefit

Compound: NC(=O)N1c2ccccc2CC(=O)c2ccccc21 [OXC, oxcarbazepine]
- Other sodium channel blocker response [3]: seizure control remained good
- Other sodium channel blocker response [4]: no effect

Compound: Nc1nnc(-c2cccc(Cl)c2Cl)c(N)n1 [LTG, lamotrigine]
- Other sodium channel blocker response [4]: no effect

Compound: L-Dopa/Carbidopa
- Improvement of movement disorder [3]: Improvement

Compound: CCCCCc1cc(O)c2c(c1)OC(C)(C)[C@@H]1CCC(C)=C[C@@H]21 [THC, tetrahydrocannabinol]
- Other AED response [3]: Benefit

Compound: C=C(C)[C@@H]1CCC(C)=C[C@H]1c1c(O)cc(CCCCC)cc1O [CBD, cannabidiol]
- Other AED response [2]: Benefit

Compound: C=CC(N)CCC(=O)O (stereo not shown) [VGB, vigabatrin]
- Seizure control, summary over patients [3]: beneficial in one and exacerbated seizures in three
- Other AED response [1]: Benefit

Compound: adrenocorticotropic hormone (SYSMEHFRWGKPVGKKRRPVKVYPNGAEDESAEAFPLEF; Corticotropin; UniProt P01189 138-176, looked up) [ACTH]
- Other AED response [3]: Benefit
- Seizure control, summary over patients [3]: beneficial in four patients
- Other AED response [1]: Benefit

Compound: CC1OC(C)OC(C)O1 (stereo not shown) [paraldehyde]
- Other AED response [3]: Benefit
